According to patent US20040181130A1, “Methods for diagnosing skin lesions” (3M Innovative Properties Company, priority 2003, published 2004):

System: AK lesions
Experiment: Increase in AK lesion count during 16-week topical treatment of volunteers with AK lesions
Type: in vivo, human
From the text: Volunteers having from four to eight clinically diagnosed AK lesions located within a 25 cm^2 treatment area were enrolled in a study. The study consisted of a prestudy period, a 16-week treatment period, and an 8-week post treatment period. Enrolled participants were randomized to receive either 5% imiquimod cream (ALDARA, 3M Pharmaceuticals, St. Paul, Minn.) or placebo cream containing no biologically active ingredient.
Subjects were instructed to topically administer cream from a single-use sachet. Sachets that contained imiquimod contained 250 mg of cream. One group of subjects applied cream two days per week for sixteen weeks, with dosing days occurring a minimum of three days apart. A second group of subjects applied cream three days per week for sixteen weeks, with dosing days occurring at least two days apart.
At a pretreatment visit, a baseline AK lesion count was established for each subject. Updated AK lesion counts were calculated at visits after four weeks, eight weeks, and sixteen weeks of treatment. For each individual, “new” AK lesions were calculated as the difference between the updated AK count and the baseline AK count. Thus, subclinical AK lesions may become apparent after treatment with ALDARA cream.

[1] = 5% cream topical 2x/week, Any visit, N=215
[2] = 5% cream topical 2x/week, Week 4, N=215
[3] = 5% cream topical 2x/week, Week 8, N=215
[4] = 5% cream topical 2x/week, Week 16, N=215
[5] = 5% cream topical 3x/week, Any visit, N=242
[6] = 5% cream topical 3x/week, Week 4, N=242
[7] = 5% cream topical 3x/week, Week 8, N=242
[8] = 5% cream topical 3x/week, Week 16, N=242

With CC(C)Cn1cnc2c(N)nc3ccccc3c21 [Imiquimod, imiquimod] the “% of Subjects with an Increase in AK Lesion Count” value (“% of Subjects with an Increase” for short) [1] was 47.9%, the “Number of Subjects with an Increase in AK Lesion Count” value (“Number of Subjects with an Increase” for short) [1] was 103 and the “% of Subjects with an Increase” value [2] was 36.7%. For the same molecule, the “Number of Subjects with an Increase” value [2] was 79, the “% of Subjects with an Increase” value [3] was 28.4% and the “Number of Subjects with an Increase” value [3] was 61. For the same molecule, the “% of Subjects with an Increase” value [4] was 9.3%, the “Number of Subjects with an Increase” value [4] was 20 and the “% of Subjects with an Increase” value [5] was 42.6%. The “Number of Subjects with an Increase” value [5] was 103, the “% of Subjects with an Increase” value [6] was 33.1% and the “Number of Subjects with an Increase” value [6] was 80. The “% of Subjects with an Increase” value [7] was 16.5%, the “Number of Subjects with an Increase” value [7] was 40 and the “% of Subjects with an Increase” value [8] was 6.2%. For the same molecule, the “Number of Subjects with an Increase” value [8] was 15.
